Several values for one entry are separate records, joined by “and”; a condition that tells them apart may be missing. Equal entries are not always repeated. Where two headings read alike, the source gives them in different places.
Key:
wild type CHO cells = assay: [35S]GTPγS binding on wild type CHO membranes; format: biochemical
Description: a) Methods—Determination of [^35S ]GTPγS binding to the G-proteins was carried out according to a modified procedure of Lazareno (Methods Mol. Biol., 83:107-116, 1997). These experiments were performed for a first functional evaluation of the receptor on the level of a membrane preparation. […] For testing agonistic activity, 175 μl of diluted membranes was pre-incubated in the buffer described above together with 25 μl of buffer and 25 μl of varying concentrations of the compound in a total volume of 225 μl. After a 20 minute pre-incubation period at 30° C., 25 μl of [^35S]GTPγS was added to a final concentration of 0.25 nM and the assay mixtures were further incubated for 20 minutes at 30° C. […] The amount of bound radioactivity on the filter unit was determined after drying of the filters and scintillant addition (Microscint-O; Packard Company) by liquid scintillation counting. Basal [^35S]GTPγS binding was measured in absence of compounds. Stimulation by agonist was calculated as the percentage increase above basal levels. The sigmoid agonist concentration-response curves were analyzed by non-linear regression using the GraphPad Prism program. The different concentration points were run in duplicates and the reported data were retrieved from independent experiments.

[1] = target: T1, adenine binding rat receptor (Rattus norvegicus, UniProt Q7TN49); assay: [35S]GTPγS binding on CHO membranes transiently transfected; format: biochemical; conditions: for % stim.: increase above basal
T1 construct: expressed in transfected cells; host or cells: CHO cells, transient, lipofectamine PLUS
T1 sequence (Q7TN49 1-304): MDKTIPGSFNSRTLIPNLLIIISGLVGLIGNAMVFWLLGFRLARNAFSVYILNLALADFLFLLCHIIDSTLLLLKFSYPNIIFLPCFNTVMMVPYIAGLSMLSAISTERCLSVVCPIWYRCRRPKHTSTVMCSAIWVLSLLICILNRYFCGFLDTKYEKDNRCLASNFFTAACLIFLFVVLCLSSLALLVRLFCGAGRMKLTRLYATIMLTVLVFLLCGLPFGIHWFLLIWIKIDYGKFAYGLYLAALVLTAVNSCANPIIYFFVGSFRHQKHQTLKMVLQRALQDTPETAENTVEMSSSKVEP
Description: a) Methods—Determination of [^35S ]GTPγS binding to the G-proteins was carried out according to a modified procedure of Lazareno (Methods Mol. Biol., 83:107-116, 1997). These experiments were performed for a first functional evaluation of the receptor on the level of a membrane preparation.
The assay mixture contained 10 and 35 μg of membrane protein for the transfected and wild type CHO cells, respectively.
For testing agonistic activity, 175 μl of diluted membranes was pre-incubated in the buffer described above together with 25 μl of buffer and 25 μl of varying concentrations of the compound in a total volume of 225 μl. After a 20 minute pre-incubation period at 30° C., 25 μl of [^35S]GTPγS was added to a final concentration of 0.25 nM and the assay mixtures were further incubated for 20 minutes at 30° C. Bound and free [^35S]GTPγS were separated by rapid filtration over an UniFilter™-96, GF/B™ under reduced pressure using Filtermate 196 filtration (Packard Company (Netherlands). The amount of bound radioactivity on the filter unit was determined after drying of the filters and scintillant addition (Microscint-O; Packard Company) by liquid scintillation counting.
Basal [^35S]GTPγS binding was measured in absence of compounds. Stimulation by agonist was calculated as the percentage increase above basal levels. The sigmoid agonist concentration-response curves were analyzed by non-linear regression using the GraphPad Prism program. The different concentration points were run in duplicates and the reported data were retrieved from independent experiments.

[2] = target: T1, adenine binding rat receptor; assay: [3H]adenine competition binding on CHO membranes transiently transfected; conditions: transfected cells, 15 nM [3H]adenine
Description: The membranes were prepared as total particulate fractions. The cell lines were cultured to […] on 145 mm petri dishes and treated with 5 mM sodium butyrate, 24 hours before collection. The culturing medium was removed and the cells were washed twice with ice cold phosphate buffered saline (PBS without Ca^2+ and Mg^2+), scraped from the plates in 50 mM Tris-HCl buffer, pH 7.4, and collected by centrifugation (10 minutes at 16,000 RPM at 4° C.). The cell pellet was re-suspended in hypotonic 5 mM Tris-HCl buffer, pH 7.4, and homogenized with an Ultra Turrax homogenizer (Janker Kunkel, Germany). The homogenate was centrifuged at 18,000 RPM for 20 minutes at 4° C. The final pellet was re-suspended in 50 mM Tris-HCl buffer, pH 7.4 and stored in aliquots at −70° C. A protein determination was performed using the Bradford protein assay (Biorad, Germany) using bovine serum albumin (BSA) as standard.
A) Methods—[3H]Adenine binding experiments were performed to characterize wild type cell lines before transfection as well as transiently and permanently transfected cell lines. Membranes were thawed on ice and diluted in 50 mM HEPES buffer, pH 7.4 supplemented with 10 mM MgCl2 and 1 mM EGTA. […] Both assays were carried out in a final volume of 500 μl, using 18 μg of membrane protein for the transfected CHO cells and 30 μg of membrane protein for the wild type CHO cells for the saturation binding. For competition binding experiments, 15 and 50 μg of membrane protein was used for the transfected and wild type cells, respectively. The reaction was terminated by rapid filtration through Whatman GF/B filters using a Brandel multi-channel cell harvester (96 wells). The filters were washed three times with 3 ml ice cold 50 mM HEPES buffer, pH 7.4, transferred to liquid scintillation vials and 3 ml of scintillation fluid (Ultima Gold MV, Packard, Netherlands) was added. Samples were counted in a β-scintillation counter after at least 6 hours to permit the glass fiber filters to become uniformly translucent.

[3] = transiently transfected cells, mean of n experiments
[4] = transiently transfected cells, single experiments
[5] = transiently transfected cells, single experiments, read-out: pEC50 (converted)
[6] = transiently transfected CHO membranes

Row | EC50 ([1]; transiently transfected CHO membranes, read-out: mean EC50) | % stim. [1, 3] | % stim. ([1]; transiently transfected cells, mean of n experiments, listed as adenine) | % stim. [1, 4] | EC50 [1, 5] | IC50 ([2]; mean of n experiments) | Ki ([2]; mean of n experiments) | IC50 ([2]; single experiments) | Ki ([2]; single experiments) | EC50 ([1]; transiently transfected cells, mean of n experiments, read-out: pEC50 (converted)) | pEC50 [1, 3] | pIC50 ([2]; mean of n experiments) | pIC50 ([2]; single experiments) | SMILES | % stim. (wild type CHO cells; mean of n experiments) | % stim. (wild type CHO cells; single experiments) | pEC50 (wild type CHO cells; single experiments) | stimulation of the receptor ([35S]GTPγS binding) [1, 6]
1 | 0.112 µM | 148% | 150% | 177% and 199% and 106% and 111% | 0.0955 µM and 0.115 µM and 0.132 µM | 28.2 nM | 0.018 µM | 17.4 nM and 36.3 nM and 30.9 nM and 33.1 nM | 0.011 µM and 0.022 µM and 0.019 µM and 0.02 µM |  |  |  |  | Nc1ncnc2nc[nH]c12 [Adenine, adenine] | 0% | 0% | <5 | 
2 |  | 129% |  | 90% and 135% and 161% | 16.2 µM and 12 µM and 17.8 µM | 7080 nM | 4.39 µM | 6170 nM and 9770 nM and 5750 nM | 3.79 µM and 6.06 µM and 3.57 µM | 15.1 µM |  |  |  | Cn1cnc2ncnc-2c1N [1-Methyladenine] | 0% | 0% | <4 | stimulated the receptor partially with a much lower potency
3 |  | 95% |  |  |  |  | 24.5 µM |  | 31.9 µM and 20.8 µM and 21.2 µM |  | 4.35 | 4.41 | 4.29 and 4.47 and 4.46 | Nc1ncnc2c1ncn2[C@@H]1O[C@H](COP(=O)(O)O)[C@@H](O)[C@H]1O [AMP] | 0% | 0% | <4 | stimulated the receptor partially with a much lower potency
